Experimental data as given in patent publication US6355799B1, “Substituted benzene compounds, process for their preparation, and herbicidal and defoliant compositions containing them” (ISK Americas Incorporated, priority 1997, dated 2002).

Key:
Type in all cases: in vivo
[1] = tested on: redroot pigweed (Amaranthus retroflexus, AMARE); assay: Pre-emerge test, greenhouse herbicide activity screening; settings: pre-emerge, 14 days after application, scale 0-100
Procedure, shortened: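 Rating: 0–100 visual injury, 14 DAA. Application: acetone, 187 l/ha, 15–1000 g ai/ha, flat-fan track sprayer with nozzle 40–45 cm above soil or canopy. Post-emerge runs used 0.25% v/v surfactant on 2–3 leaf plants.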

[2] = tested on: barnyardgrass (Echinochloa crus-galli, ECHCG); assay: as above; settings: pre-emerge, 14 days after application, scale 0-100
Procedure, shortened: (§1)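 Plants grown in 10 cm pots of sandy loam mix received acetone-dissolved compounds through a moving flat-fan nozzle. Doses ranged from 15 to 1000 g ai/ha. Pre-emerge pots were seeded one day earlier, post-emerge pots 8–21 days earlier. Fourteen days on, each pot was graded 0–100 for damage.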

[3] = tested on: common ragweed (Ambrosia artemisizfolia L., AMBEL); assay: as above; settings: pre-emerge, 14 days after application, scale 0-100
Procedure, shortened: as §1

[4] = tested on: green foxtail (Setaria viridis, SETVI); assay: as above; settings: pre-emerge, 14 days after application, scale 0-100
Procedure, shortened: as §1

[5] = tested on: ivyleaf morningglory (Ipomoea hederacea, IPOHE); assay: as above; settings: pre-emerge, 14 days after application, scale 0-100
Procedure, shortened: as §1

[6] = tested on: johnsongrass (Sorghum halepense, SORHA); assay: as above; settings: pre-emerge, 14 days after application, scale 0-100
Procedure, shortened: as §1

[7] = tested on: lambsquarters (Chenopodium album, CHEAL); assay: as above; settings: pre-emerge, 14 days after application, scale 0-100
Procedure, shortened: as §1

[8] = tested on: large crabgrass (Digitaria sanguinalis, DIGSA); assay: as above; settings: pre-emerge, 14 days after application, scale 0-100
Procedure, shortened: as §1

[9] = tested on: sicklepod (Cassia obtusifolia, CASOB); assay: as above; settings: pre-emerge, 14 days after application, scale 0-100
Procedure, shortened: as §1

[10] = tested on: velvetleaf (Abutilon theophrasti, ABUTH); assay: as above; settings: pre-emerge, 14 days after application, scale 0-100
Procedure, shortened: as §1

[11] = tested on: field corn (Zea mays L., var. Dekalb 535, CORN); assay: Pre-emerge test, crop safety; settings: pre-emerge, 14 days after application, scale 0-100
Procedure, shortened: (§2)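 Applied at 15–1000 g ai/ha from acetone in 187 l/ha spray volume. Post-emergence applications included 0.25% v/v non-ionic surfactant and reached plants sown 8–21 days before. Pre-emergence applications were incorporated by surface watering. Efficacy or crop damage was rated on a 0–100 scale after 14 days.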

[12] = tested on: upland rice (Oryza sp., var. Tebonnet, RICE); assay: Pre-emerge test, crop safety; settings: pre-emerge, 14 days after application, scale 0-100
Procedure, shortened: as §2

[13] = tested on: barnyardgrass (Echinochloa crus-galli, ECHCG); assay: Post-emerge test, greenhouse herbicide activity screening; settings: post-emerge, 14 days after application, rating scale 0-100
Procedure, shortened: (§3)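 Compounds in acetone were track-sprayed at 15-1000 g ai/ha (187 l/ha) on sandy loam pots: pre-emerge one day after seeding, post-emerge at 2-3 leaf stage with 0.25% v/v non-ionic surfactant. Phytotoxicity was rated 14 days later on a 0 (no damage) to 100 (complete death) scale.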

[14] = tested on: common ragweed (Ambrosia artemisizfolia L., AMBEL); assay: as above; settings: post-emerge, 14 days after application, rating scale 0-100
Procedure, shortened: as §3

[15] = tested on: green foxtail (Setaria viridis, SETVI); assay: as above; settings: post-emerge, 14 days after application, rating scale 0-100
Procedure, shortened: as §3

[16] = tested on: ivyleaf morningglory (Ipomoea hederacea, IPOHE); assay: as above; settings: post-emerge, 14 days after application, rating scale 0-100
Procedure, shortened: as §3

[17] = tested on: lambsquarters (Chenopodium album, CHEAL); assay: as above; settings: post-emerge, 14 days after application, rating scale 0-100
Procedure, shortened: as §3

[18] = tested on: large crabgrass (Digitaria sanguinalis, DIGSA); assay: as above; settings: post-emerge, 14 days after application, rating scale 0-100
Procedure, shortened: as §3

[19] = tested on: redroot pigweed (Amaranthus retroflexus, AMARE); assay: as above; settings: post-emerge, 14 days after application, rating scale 0-100
Procedure, shortened: as §3

[20] = tested on: sicklepod (Cassia obtusifolia, CASOB); assay: as above; settings: post-emerge, 14 days after application, rating scale 0-100
Procedure, shortened: as §3

[21] = tested on: velvetleaf (Abutilon theophrasti, ABUTH); assay: as above; settings: post-emerge, 14 days after application, rating scale 0-100
Procedure, shortened: as §3

[22] = tested on: field corn (Zea mays L., var. Dekalb 535, CORN); assay: Post-emerge test, crop safety; settings: post-emerge, 14 days after application, rating scale 0-100
Procedure, shortened: (§4)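 Each test used a mechanized track sprayer delivering 187 l/ha of acetone solution at 15–1000 g ai/ha. Post-emerge foliage at 2–3 leaves was treated with added 0.25% v/v non-ionic surfactant and bottom-watered only. Injury was assessed on day 14, where 100 means total kill.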

[23] = tested on: upland rice (Oryza sp., var. Tebonnet, RICE); assay: Post-emerge test, crop safety; settings: post-emerge, 14 days after application, rating scale 0-100
Procedure, shortened: as §4

Cn1c(C(F)(F)F)cc(=O)n(-c2c(F)cc(Cl)cc2NC2CC2)c1=O [2-147]
50: ECHCG phytotoxicity rating ([13]; 250 g ai/ha) | DIGSA phytotoxicity rating ([18]; 250 g ai/ha) | RICE phytotoxicity rating (crop damage) ([23]; 63 g ai/ha)
80: phytotoxicity rating AMBEL ([3]; 63 g ai/ha) | phytotoxicity rating IPOHE ([5]; 63 g ai/ha) | CASOB phytotoxicity rating ([20]; 63 g ai/ha)
95: AMBEL phytotoxicity rating ([14]; 63 g ai/ha) | CASOB phytotoxicity rating ([20]; 250 g ai/ha)
10: ECHCG phytotoxicity rating ([13]; 63 g ai/ha)
90: phytotoxicity rating ECHCG ([2]; 63 g ai/ha) | phytotoxicity rating SORHA ([6]; 63 g ai/ha) | phytotoxicity rating DIGSA ([8]; 63 g ai/ha) | CORN phytotoxicity rating (crop damage) ([22]; 250 g ai/ha)
20: SETVI phytotoxicity rating ([15]; 63 g ai/ha) | DIGSA phytotoxicity rating ([18]; 63 g ai/ha)
100: phytotoxicity rating AMARE ([1]; 63 g ai/ha) | phytotoxicity rating AMARE ([1]; 250 g ai/ha) | phytotoxicity rating ECHCG ([2]; 250 g ai/ha) | phytotoxicity rating AMBEL ([3]; 250 g ai/ha) | phytotoxicity rating SETVI ([4]; 63 g ai/ha) | phytotoxicity rating SETVI ([4]; 250 g ai/ha) | phytotoxicity rating IPOHE ([5]; 250 g ai/ha) | phytotoxicity rating SORHA ([6]; 250 g ai/ha) | phytotoxicity rating CHEAL ([7]; 63 g ai/ha) | phytotoxicity rating CHEAL ([7]; 250 g ai/ha) | phytotoxicity rating DIGSA ([8]; 250 g ai/ha) | phytotoxicity rating CASOB ([9]; 250 g ai/ha) | phytotoxicity rating ABUTH ([10]; 63 g ai/ha) | phytotoxicity rating ABUTH ([10]; 250 g ai/ha) | phytotoxicity rating CORN (crop damage) ([11]; 63 g ai/ha) | phytotoxicity rating CORN (crop damage) ([11]; 250 g ai/ha) | phytotoxicity rating RICE (crop damage) ([12]; 250 g ai/ha) | AMBEL phytotoxicity rating ([14]; 250 g ai/ha) | IPOHE phytotoxicity rating ([16]; 63 g ai/ha) | IPOHE phytotoxicity rating ([16]; 250 g ai/ha) | CHEAL phytotoxicity rating ([17]; 63 g ai/ha) | CHEAL phytotoxicity rating ([17]; 250 g ai/ha) | AMARE phytotoxicity rating ([19]; 63 g ai/ha) | AMARE phytotoxicity rating ([19]; 250 g ai/ha) | ABUTH phytotoxicity rating ([21]; 63 g ai/ha) | ABUTH phytotoxicity rating ([21]; 250 g ai/ha)
75: RICE phytotoxicity rating (crop damage) ([23]; 250 g ai/ha)
40: phytotoxicity rating CASOB ([9]; 63 g ai/ha) | SETVI phytotoxicity rating ([15]; 250 g ai/ha)
99: phytotoxicity rating RICE (crop damage) ([12]; 63 g ai/ha)
15: CORN phytotoxicity rating (crop damage) ([22]; 63 g ai/ha)
